Holding throughout (experiment): R-SAT broad profiling
Holding throughout (type): cell-based

The target in experiment [1] is T1, 5HT6A (Homo sapiens, UniProt P50406).
T1 construct: expressed in transfected cells; host or cells: NIH3T3
Conditions: inverse; read-out: pEC50 or pIC50 (converted). The method, then:
(§1) The functional receptor assay, Receptor Selection and Amplification Technology (R-SAT), was used (with minor modifications from that previously described U.S. Pat. No. 5,707,798) to screen compounds for efficacy at the 5-HT2A receptor. Briefly, NIH3T3 cells were grown in 96 well tissue culture plates to 70-80% confluence. Cells were transfected for 12-16 hours with plasmid DNAs using superfect (Qiagen Inc.) as per manufacture's protocols. R-SAT's were generally performed with 50 ng/well of receptor and 20 ng/well of Beta-galactosidase plasmid DNA. All receptor and G-protein constructs used were in the pSI mammalian expression vector (Promega Inc) as described in U.S. Pat. No. 5,707,798. The 5HT2A receptor gene was amplified by nested PCR from brain cDNA using the oligodeoxynucleotides based on the published sequence (see Saltzman et. al. Biochem. Biophys. Res. Comm. 181:1469-78 (1991)). Large-scale transfections, cells were transfected for 12-16 hours, then trypsinized and frozen in DMSO. Frozen cells were later thawed, plated at 10,000-40,000 cells per well of a 96 well plate that contained drug. With both methods, cells were then grown in a humidified atmosphere with 5% ambient CO2 for five days. Media was then removed from the plates and marker gene activity was measured by the addition of the beta-galactosidase substrate ONPG (in PBS with 5% NP-40). The resulting colorimetric reaction was measured in a spectrophotometric plate reader (Titertek Inc.)at […]. All data were analyzed using the computer program XLFit (IDBSm). Efficacy is the percent maximal repression compared to repression by a control compound (ritanserin in the case of 5HT2A). pIC50 is the negative of the log(IC50), where IC50 is the calculated concentration in Molar that produces 50% maximal repression.
(§2) The R-SAT assay (described above in example 289) was used to investigate the selectivity of 4-(4-Fluoro-benzyl)-3-(4-isobutoxy-benzyl)-8-methyl-1-oxa-3,8-diaza-spiro[4.5]decan-2-one.

Experiment [2] deals with T2, 5HT7A (Homo sapiens, UniProt P34969).
T2 construct: expressed in transfected cells; host or cells: NIH3T3
T2 sequence (P34969 1-445 isoform P34969-2): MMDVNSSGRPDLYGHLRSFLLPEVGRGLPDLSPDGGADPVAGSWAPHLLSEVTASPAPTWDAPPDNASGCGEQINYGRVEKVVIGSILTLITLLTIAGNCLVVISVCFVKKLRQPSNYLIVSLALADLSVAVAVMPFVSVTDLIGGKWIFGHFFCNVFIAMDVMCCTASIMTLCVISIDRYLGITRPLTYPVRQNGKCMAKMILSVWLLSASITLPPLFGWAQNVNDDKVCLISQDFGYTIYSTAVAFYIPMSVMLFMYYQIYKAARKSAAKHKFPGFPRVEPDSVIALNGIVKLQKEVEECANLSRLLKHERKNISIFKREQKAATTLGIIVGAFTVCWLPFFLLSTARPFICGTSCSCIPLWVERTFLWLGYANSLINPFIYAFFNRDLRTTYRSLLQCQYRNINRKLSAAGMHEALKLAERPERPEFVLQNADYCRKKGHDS
Conditions: read-out: pEC50 or pIC50 (converted). The method, then: as §1, §2

Experiment [3] addresses T3, m1 (Homo sapiens, UniProt P11229).
T3 construct: expressed in transfected cells; host or cells: NIH3T3
T3 sequence (P11229 1-460): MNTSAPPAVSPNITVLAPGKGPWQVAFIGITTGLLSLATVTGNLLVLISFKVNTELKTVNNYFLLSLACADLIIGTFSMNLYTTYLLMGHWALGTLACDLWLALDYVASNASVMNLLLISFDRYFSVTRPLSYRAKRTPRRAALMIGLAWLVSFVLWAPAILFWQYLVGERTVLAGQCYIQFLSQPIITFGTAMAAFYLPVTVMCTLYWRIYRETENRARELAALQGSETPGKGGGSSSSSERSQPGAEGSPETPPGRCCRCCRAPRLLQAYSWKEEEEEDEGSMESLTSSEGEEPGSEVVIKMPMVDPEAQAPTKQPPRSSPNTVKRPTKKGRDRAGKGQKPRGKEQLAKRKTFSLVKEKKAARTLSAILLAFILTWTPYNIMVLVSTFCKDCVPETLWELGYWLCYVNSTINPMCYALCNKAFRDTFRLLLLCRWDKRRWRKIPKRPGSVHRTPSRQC
The note with it: agonist; read-out: pEC50 or pIC50 (converted). The protocol: as §1, §2

Experiment [4] has as its target T4, D3 (Homo sapiens, UniProt P35462).
T4 construct: expressed in transfected cells; host or cells: NIH3T3
Conditions: read-out: pEC50/pIC50 (converted). The method, then:
as §1
(§3) The R-SAT assay (described above in example 136) was used to investigate the selectivity of 2-(4-Methoxyphenyl)-N-(4-methylbenzyl)-N-(1-methylpiperidin-4-yl)acetamide hydrochloride.

Experiment [5] deals with T5, 5-HT7 (Homo sapiens, UniProt P34969).
T5 construct: expressed in transfected cells
T5 sequence (P34969 whole entry, species assumed): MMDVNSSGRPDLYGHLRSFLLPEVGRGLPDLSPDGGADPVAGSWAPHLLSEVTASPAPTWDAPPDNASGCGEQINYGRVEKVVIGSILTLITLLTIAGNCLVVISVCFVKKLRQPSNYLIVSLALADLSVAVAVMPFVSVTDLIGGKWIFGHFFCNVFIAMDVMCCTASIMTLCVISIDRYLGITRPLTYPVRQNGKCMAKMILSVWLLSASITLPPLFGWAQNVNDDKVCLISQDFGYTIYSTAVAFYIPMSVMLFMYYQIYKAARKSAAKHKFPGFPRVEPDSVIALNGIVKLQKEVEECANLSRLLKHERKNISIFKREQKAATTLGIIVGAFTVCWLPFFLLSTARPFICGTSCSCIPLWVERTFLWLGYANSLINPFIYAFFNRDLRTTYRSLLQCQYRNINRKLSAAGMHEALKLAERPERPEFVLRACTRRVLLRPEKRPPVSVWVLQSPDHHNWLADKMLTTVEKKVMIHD
The note with it: read-out: pEC50/pIC50 (converted). The method, then: as §1, §3

Experiment [6] has as its target T6, beta 2 (Homo sapiens, UniProt P07550).
T6 construct: expressed in transfected cells; host or cells: NIH3T3
The note with it: read-out: pEC50/pIC50 (converted). The protocol:
as §1, §3

Experiment [7] deals with T7, NK-1 (Homo sapiens, UniProt P25103).
T7 construct: expressed in transfected cells; host or cells: NIH3T3
T7 sequence (P25103 whole entry): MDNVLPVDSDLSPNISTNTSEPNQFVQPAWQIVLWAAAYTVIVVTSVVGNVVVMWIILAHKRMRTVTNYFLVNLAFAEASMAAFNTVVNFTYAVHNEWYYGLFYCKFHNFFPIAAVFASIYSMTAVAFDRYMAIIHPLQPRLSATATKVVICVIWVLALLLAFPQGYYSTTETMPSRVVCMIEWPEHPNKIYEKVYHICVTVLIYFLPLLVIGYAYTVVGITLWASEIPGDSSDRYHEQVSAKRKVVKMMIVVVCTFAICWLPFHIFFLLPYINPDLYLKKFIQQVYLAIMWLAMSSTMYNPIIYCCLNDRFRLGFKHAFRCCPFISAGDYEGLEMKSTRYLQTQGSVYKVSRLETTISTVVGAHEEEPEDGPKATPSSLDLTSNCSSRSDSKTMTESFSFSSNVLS
Conditions: agonist; read-out: pEC50/pIC50 (converted). The method, then:
as §1, §3

For experiment [8], the target named is T8, D5 (Homo sapiens, UniProt P21918).
T8 construct: expressed in transfected cells; host or cells: NIH3T3
T8 sequence (P21918 whole entry): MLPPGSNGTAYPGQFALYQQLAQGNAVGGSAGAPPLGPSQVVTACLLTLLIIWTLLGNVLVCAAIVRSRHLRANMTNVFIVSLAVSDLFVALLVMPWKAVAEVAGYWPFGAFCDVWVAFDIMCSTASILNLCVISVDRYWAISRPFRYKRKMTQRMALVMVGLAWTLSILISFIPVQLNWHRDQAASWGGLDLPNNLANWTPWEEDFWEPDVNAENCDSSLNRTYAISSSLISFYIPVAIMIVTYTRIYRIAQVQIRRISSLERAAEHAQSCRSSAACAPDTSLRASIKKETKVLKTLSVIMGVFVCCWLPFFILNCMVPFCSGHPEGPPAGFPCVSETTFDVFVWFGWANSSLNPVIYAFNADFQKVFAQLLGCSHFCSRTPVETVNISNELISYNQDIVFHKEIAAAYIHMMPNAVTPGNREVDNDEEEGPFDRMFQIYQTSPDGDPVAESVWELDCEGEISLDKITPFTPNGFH
The note with it: read-out: pEC50/pIC50 (converted). The method, then:
as §1, §3

For experiment [9], the target named is T9, alpha 2B (Homo sapiens, UniProt P18089).
T9 construct: expressed in transfected cells; host or cells: NIH3T3
T9 sequence (P18089 1-450): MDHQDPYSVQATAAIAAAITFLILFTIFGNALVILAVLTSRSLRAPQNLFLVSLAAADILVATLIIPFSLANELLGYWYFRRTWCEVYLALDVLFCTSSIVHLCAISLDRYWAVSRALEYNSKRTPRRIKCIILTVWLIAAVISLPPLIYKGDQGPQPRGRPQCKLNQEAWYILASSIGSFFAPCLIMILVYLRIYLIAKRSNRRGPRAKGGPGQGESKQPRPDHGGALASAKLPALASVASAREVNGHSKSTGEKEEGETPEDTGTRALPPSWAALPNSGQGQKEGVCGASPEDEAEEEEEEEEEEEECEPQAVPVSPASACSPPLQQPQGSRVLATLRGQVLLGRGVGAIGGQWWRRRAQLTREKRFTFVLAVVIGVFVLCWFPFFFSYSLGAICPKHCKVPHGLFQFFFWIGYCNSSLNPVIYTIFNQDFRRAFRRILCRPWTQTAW
The note with it: read-out: pEC50/pIC50 (converted). The method, then: as §1, §3

For experiment [10], the target named is T10, alpha 2A (Homo sapiens, UniProt P08913).
T10 construct: expressed in transfected cells; host or cells: NIH3T3
T10 sequence (P08913 1-465): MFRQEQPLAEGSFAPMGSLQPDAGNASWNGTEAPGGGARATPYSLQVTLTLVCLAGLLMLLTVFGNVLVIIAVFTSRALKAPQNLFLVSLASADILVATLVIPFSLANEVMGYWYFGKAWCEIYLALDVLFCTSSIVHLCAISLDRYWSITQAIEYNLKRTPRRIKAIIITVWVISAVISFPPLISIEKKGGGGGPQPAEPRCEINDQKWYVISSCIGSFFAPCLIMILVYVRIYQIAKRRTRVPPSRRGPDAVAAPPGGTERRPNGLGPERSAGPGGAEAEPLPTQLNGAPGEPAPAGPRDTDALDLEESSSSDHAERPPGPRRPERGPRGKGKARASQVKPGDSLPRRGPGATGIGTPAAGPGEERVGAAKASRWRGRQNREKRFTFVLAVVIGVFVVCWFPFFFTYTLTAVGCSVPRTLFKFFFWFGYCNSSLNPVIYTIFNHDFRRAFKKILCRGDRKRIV
The note with it: read-out: pEC50/pIC50 (converted). The method, then: as §1, §3

T4 sequence (P35462 whole entry): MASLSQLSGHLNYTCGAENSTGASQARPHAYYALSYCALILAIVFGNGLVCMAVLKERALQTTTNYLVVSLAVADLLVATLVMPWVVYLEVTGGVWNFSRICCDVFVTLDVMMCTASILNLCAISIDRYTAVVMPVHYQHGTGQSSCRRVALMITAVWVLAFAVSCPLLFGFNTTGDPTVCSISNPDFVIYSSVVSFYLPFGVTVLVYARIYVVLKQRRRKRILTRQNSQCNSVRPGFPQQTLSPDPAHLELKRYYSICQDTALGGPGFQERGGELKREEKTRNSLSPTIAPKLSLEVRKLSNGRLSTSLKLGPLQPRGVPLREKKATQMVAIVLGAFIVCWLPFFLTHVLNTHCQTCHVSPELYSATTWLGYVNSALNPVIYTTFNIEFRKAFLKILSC
T6 sequence (P07550 whole entry): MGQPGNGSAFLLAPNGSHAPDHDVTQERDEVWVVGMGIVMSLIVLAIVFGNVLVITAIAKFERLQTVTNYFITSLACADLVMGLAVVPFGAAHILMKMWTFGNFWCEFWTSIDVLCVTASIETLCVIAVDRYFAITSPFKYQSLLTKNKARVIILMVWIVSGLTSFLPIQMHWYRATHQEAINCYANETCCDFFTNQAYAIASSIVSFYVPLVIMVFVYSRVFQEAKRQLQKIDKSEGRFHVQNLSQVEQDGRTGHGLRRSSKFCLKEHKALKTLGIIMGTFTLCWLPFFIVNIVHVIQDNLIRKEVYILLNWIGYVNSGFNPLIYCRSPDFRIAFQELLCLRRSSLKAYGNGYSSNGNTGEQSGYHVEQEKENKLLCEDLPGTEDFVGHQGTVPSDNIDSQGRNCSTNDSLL
T1 sequence (P50406 whole entry): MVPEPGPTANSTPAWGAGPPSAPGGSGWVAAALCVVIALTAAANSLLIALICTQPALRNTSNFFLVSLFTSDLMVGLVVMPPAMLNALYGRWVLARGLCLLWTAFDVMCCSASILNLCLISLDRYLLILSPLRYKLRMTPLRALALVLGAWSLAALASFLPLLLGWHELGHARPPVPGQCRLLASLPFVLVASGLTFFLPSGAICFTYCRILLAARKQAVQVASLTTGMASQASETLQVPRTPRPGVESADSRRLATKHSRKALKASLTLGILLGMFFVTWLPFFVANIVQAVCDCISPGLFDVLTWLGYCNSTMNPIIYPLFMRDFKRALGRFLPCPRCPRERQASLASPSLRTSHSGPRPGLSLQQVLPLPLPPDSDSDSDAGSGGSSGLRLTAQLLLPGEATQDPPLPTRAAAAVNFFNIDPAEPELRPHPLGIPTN

`CC(C)COc1ccc(CN2C(=O)OC3(CCN(C)CC3)C2Cc2ccc(F)cc2)cc1.Cl` (racemic) [Example 69NLS75, 4-(4-Fluorobenzyl)-3-(4-isobutoxybenzyl)-8-methyl-1-oxa-3,8-diazaspiro[4.5]decan-2-one, hydrochloride]: the IC50 in [1] and in experiment [2] (inverse) was greater than 3.16 µM each time. Also, the EC50 in [2] (agonist) and in experiment [3] was greater than 3.16 µM in each case.
Turning to `COc1ccc(CC(=O)N(Cc2ccc(C)cc2)C2CCN(C)CC2)cc1` [Example 50ELH27, 2-(4-Methoxyphenyl)-N-(4-methylbenzyl)-N-(1-methylpiperidin-4-yl)acetamide], the EC50 in [4] (agonist), in experiment [5] (agonist), in experiment [6] (agonist), in experiment [7], in experiment [8] (agonist) and in experiment [9] (agonist) was greater than 3.16 µM in each case. In [10] (agonist), the EC50 is greater than 3.16 µM. Further, the IC50 in experiment [4] (antagonist) was greater than 3.16 µM; in experiment [5] (inverse agonist), 0.126 µM; in [6] (antagonist), greater than 3.16 µM; in experiment [8] (antagonist), greater than 3.16 µM; in [9] (antagonist), greater than 3.16 µM; in [10] (antagonist) it was greater than 3.16 µM.
